Data as given in patent US9011879B2 (priority 2009, dated 2015).

What was measured:
sympathetic neurons = settings: cited from earlier work
renal arteries = settings: pig, in vivo
[1] = system: kidney norepinephrine (NE); set-up: species or system porcine; settings: pig, in vivo

Compound	concentration accumulated within neurons in vivo (sympathetic neurons) [µM]	perivascular indications of denervation (histology) (renal arteries)	average NE level in renal cortex tissue [1]	reduction in renal cortex NE [1] [%]
N=C(N)NCCN1CCCCCCC1 [guanethidine, Guanidine, [2-(hexahydro-1(2H)-azocinyl)ethyl]-]	500 to 1000	–	–	–
Guanidine, [2-(hexahydro-1(2H)-azocinyl)ethyl]-, sulfate (1:1) [Guanethidine monosulfate]	–	nerve degeneration characterized by hypervacuolization and eosinophilia	64	86
